Measurements as given in patent publication EP0184822A2, “Novel anilide derivatives of substituted arylacetic acids” (SUMITOMO PHARMACEUTICALS COMPANY, LIMITED, priority 1984, dated 1986).

system: ddy-mice; assay: Antihypoxic activity (survival time of mice under reduced pressure, 190 mmHg); type: in vivo; conditions: Mus musculus, ip, injected intraperitoneally usually 30 minutes before the test, desiccator at 190 mmHg, effective = mean survival time above 140 sec and p<0.05 vs control
Experimental: Six ddy-mice weighing 20 - 27 g were used. Test compound was dissolved in saline or suspended in 0.5 % carboxymethylcellulose and injected intraperitoneally usually 30 minutes before the test at a dosage of 0.1 ml per 10 g of the bodyweight. Two mice were placed in a desiccator, the inside pressure of which was lowered to 190 mmHg within 2 to 3 seconds, and the survival time as well as the time interval between the start of the evacuation and the cessation of respiration was determined. The survival time of the mice which lived longer than 300 seconds was taken as 300 sec.

Row | Compound | minimal effective dose [mg/kg]
1 | Cc1ccc(C(CCc2ccccc2)C(=O)Nc2ccc(S(N)(=O)=O)cc2)cc1 (stereo not shown) [Example 40] | < 10
2 | CN(C)CCCOC1(Cc2ccccc2)CCCCCC1 [Bencyclane, reference compound] | < 30
3 | NS(=O)(=O)c1ccc(NC(=O)C(CCc2ccccc2)c2ccc(Cl)cc2)cc1 (stereo not shown) [Example 38] | < 10
4 | CCC(C(=O)Nc1ccc(O)cc1)c1ccccc1 (stereo not shown) [Known product (see page 2), reference compound] | > 30
5 | COc1ccc(Cc2nccc3cc(OC)c(OC)cc23)cc1OC [Papaverine, reference compound] | < 30
6 | O=C(Nc1cccc(O)c1)C(CCCc1ccccc1)c1ccccc1 (stereo not shown) [Example 23] | < 10
7 | CC[C@]12CCCN3CCc4c(n(c5ccccc45)[C@@](O)(C(=O)OC)C1)[C@@H]32 [Vincamine, reference compound] | < 30
8 | NC(=O)c1cccc(NC(=O)C(Cc2ccccc2)c2ccccc2)c1 (stereo not drawn) [Example 1, alpha-benzyl-N-(3-carbamoylphenyl)benzeneacetamide] | < 10
9 | NC(=O)c1cccc(NC(=O)C(CCCc2ccccc2)c2ccccc2)c1 (stereo not shown) [Example 18] | < 10
10 | O=C(Nc1cccc(O)c1)C(Cc1ccccc1)c1ccccc1 (stereo not shown) [Example 7] | < 10
